Data: publication PMC8815882, “Screening the pandemic response box identified benzimidazole carbamates, Olorofim and ravuconazole as promising drug candidates for the treatment of eumycetoma” (PLoS Neglected Tropical Diseases, 2022)
Like-named read-outs stand apart in the source and are kept apart here.

Tested on: M. mycetomatis genome strain MM55
Test: CLSI M38-A2 based in vitro susceptibility screening (XTT or resazurin), growth at fixed concentration
Format: cell-based, Madurella mycetomatis
Conditions: Madurella mycetomatis
[1] = 25 uM, mean of three replicates, read-out: Percentage survival at 25um, 25 uM mean
[2] = 25 uM, replicate A, read-out: Percentage survival at 25um, 25 um A
[3] = 25 uM, replicate B, read-out: Percentage survival at 25um, 25 uM B
[4] = 25 uM, replicate C, read-out: Percentage survival at 25um, 25 uM C
[5] = mean of three replicates, read-out: Percentage survival at 100um, 100 uM mean
[6] = replicate 1, read-out: Percentage survival at 100um, 100 uM A (first replicate column)
[7] = replicate 2, read-out: Percentage survival at 100um, 100 uM A (second replicate column)
[8] = replicate 3, read-out: Percentage survival at 100um, 100 uM A (third replicate column)
[9] = mean of replicates, read-out: Percentage survival at 100um, 100 uM mean
[10] = 25 uM, mean of three, M. mycetomatis MM55, read-out: Percentage survival at 25um, 25 uM mean
[11] = 25 uM, replicate A, M. mycetomatis MM55, read-out: Percentage survival at 25um, 25 um A
[12] = 25 uM, replicate B, M. mycetomatis MM55, read-out: Percentage survival at 25um, 25 uM B
[13] = 25 uM, replicate C, M. mycetomatis MM55, read-out: Percentage survival at 25um, 25 uM C
[14] = mean of three, M. mycetomatis MM55, read-out: Percentage survival at 100um, 100 uM mean
[15] = replicate 1, M. mycetomatis MM55, read-out: Percentage survival at 100um, 100 uM A (first replicate column)
[16] = replicate 2, M. mycetomatis MM55, read-out: Percentage survival at 100um, 100 uM A (second replicate column)
[17] = replicate 3, M. mycetomatis MM55, read-out: Percentage survival at 100um, 100 uM A (third replicate column)
[18] = first replicate column, read-out: Percentage survival at 100um, 100 uM A
[19] = second replicate column, read-out: Percentage survival at 100um, 100 uM A
[20] = third replicate column, read-out: Percentage survival at 100um, 100 uM A

Structure (SMILES) | activity at 25 µM [1] [%] | activity at 25 µM [2] [%] | activity at 25 µM [3] [%] | activity at 25 µM [4] [%] | activity at 100 µM [5] [%] | activity at 100 µM [6] [%] | activity at 100 µM [8] [%] | other results
O=C1CCC(N2C(=O)c3ccccc3C2=O)C(=O)N1 (stereo not shown) [MMV002612] | 90.8 | 89.5 | 90.5 | 92.5 | 85.3 | 88.1 | 82.9 | Percent fungal survival at 100 µM [7]: 84.8%
NCc1ccc(S(N)(=O)=O)cc1 [MMV002665] | 85.4 | 82.7 | 87.5 | 86.1 | 90.8 | 98.4 | 95.8 | Percent fungal survival at 100 µM [7]: 78.3%
C[N+]1(C)CCCC(OC(=O)C(O)(c2ccccc2)c2ccccc2)C1 (stereo not shown) [MMV002676] |  | 73.4 | 85.9 | 78.5 |  |  |  | activity at 25 µM (25 uM, mean of replicates, read-out: Percentage survival at 25um, 25 uM mean): 79.3%; activity at 100 µM [9]: 79.9%; activity at 100 µM (replicate 1, read-out: Percentage survival at 100um, 100 uM A): 85.5%; activity at 100 µM (replicate 2, read-out: Percentage survival at 100um, 100 uM A): 72.6%; activity at 100 µM (replicate 3, read-out: Percentage survival at 100um, 100 uM A): 81.5%
Cc1cc(C2CCCCC2)n(O)c(=O)c1 [MMV002731] |  | -3.44 | 96.3 | 3.22 |  |  |  | activity at 25 µM (25 uM, mean, read-out: Percentage survival at 25um, 25 uM mean): 32%; activity at 100 µM (mean, read-out: Percentage survival at 100um, 100 uM mean): 5.09%; activity at 100 µM (replicate (first column), read-out: Percentage survival at 100um, 100 uM A): -2.39%; activity at 100 µM (replicate (second column), read-out: Percentage survival at 100um, 100 uM A): 6.16%; activity at 100 µM (replicate (third column), read-out: Percentage survival at 100um, 100 uM A): 11.5%
Cc1onc(-c2ccccc2Cl)c1C(=O)N[C@@H]1C(=O)N2[C@@H]1SC(C)(C)[C@@H]2C(=O)O [MMV002740] |  |  |  |  |  |  |  | activity at 25 µM [10]: 65.2%; activity at 25 µM [11]: 60.8%; activity at 25 µM [12]: 53.9%; activity at 25 µM [13]: 80.9%; activity at 100 µM [14]: 92.7%; activity at 100 µM [15]: 88.1%; Percent fungal survival at 100 µM [16]: 77.7%; activity at 100 µM [17]: 112%
COc1ccc2c(c1OC)C(=O)OC2C1c2c(cc3c(c2OC)OCO3)CCN1C (stereo not shown) [MMV002780] | 82 | 86.6 | 81.3 | 78.1 | 72.6 |  |  | activity at 100 µM [18]: 72.9%; activity at 100 µM [19]: 68.2%; activity at 100 µM [20]: 76.7%
C[C@H]1CC[C@]2(NC1)O[C@H]1C[C@H]3[C@@H]4CC[C@H]5C[C@@H](O)CC[C@]5(C)[C@H]4CC[C@]3(C)[C@H]1[C@@H]2C [MMV003069] |  | 98.3 |  |  |  | 80.2 | 84.2 | activity at 100 µM [9]: 85.8%; activity at 100 µM [7]: 92.8%; activity at 25 µM (read-out: Percentage survival at 25um, 25 uM B): 98.8%; activity at 25 µM (read-out: Percentage survival at 25um, 25 uM C): 91.1%; activity at 25 µM (read-out: Percentage survival at 25um, 25 uM mean): 96.1%
CC[C@H]1OC(=O)[C@H](C)[C@@H](O[C@H]2C[C@@](C)(OC)[C@@H](O)[C@H](C)O2)[C@H](C)[C@@H](O[C@@H]2O[C@H](C)C[C@H](N(C)C)[C@H]2O)[C@](C)(O)C[C@@H](C)C(=O)[C@H](C)[C@@H](O)[C@]1(C)O [MMV003137] |  |  |  |  |  |  |  | activity at 25 µM [10]: 82.5%; activity at 25 µM [11]: 94.8%; activity at 25 µM [12]: 79.1%; activity at 25 µM [13]: 73.6%; activity at 100 µM [14]: 79.9%; activity at 100 µM [15]: 78.2%; Percent fungal survival at 100 µM [16]: 73.7%; activity at 100 µM [17]: 87.7%
NC(=O)c1cnccn1 [MMV003249] | 83.1 | 89.2 | 75.7 | 84.4 | 60 | 53.7 | 56.3 | Percent fungal survival at 100 µM [7]: 70%
Cc1oncc1C(=O)Nc1ccc(C(F)(F)F)cc1 [MMV003291] | 85.3 | 82.1 | 92.4 | 81.5 | 62.5 |  |  | activity at 100 µM [18]: 55.9%; activity at 100 µM [19]: 52.4%; activity at 100 µM [20]: 79%
CC#C[C@]1(O)CC[C@H]2[C@@H]3CCC4=CC(=O)CCC4=C3[C@@H](c3ccc(N(C)C)cc3)C[C@@]21C [MMV003297] | 87.2 | 90.2 | 94.9 | 76.5 | 80.3 |  |  | activity at 100 µM [18]: 84.5%; activity at 100 µM [19]: 82.6%; activity at 100 µM [20]: 73.8%
